Reference: PubChem BioAssay AID1918937 (Molecular Pharmacology Branch, DTP, NCI, 2023)

Tested on: 521955-158-R2-J5-PDC complex spheroid viability
Assay: Anticancer human tumor 521955-158-R2-J5-PDC patient-derived pancreatic carcinoma cell line growth inhibition
Settings: for IC50: curve of first compound; for viability, T/C: stronger effect = lower value
In short: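 Drug combinations with the LSD1 inhibitor iadademstat tested on tumor cells co-cultured as spheroids with endothelial cells and mesenchymal stem cells. Concentrations descended in half-log increments from clinical Cmax or 10 microM.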

[1] = second compound 0.1 µM, first compound 0.0316 µM
[2] = second compound 0.1 µM, first compound 0.1 µM
[3] = second compound 0.316 µM, first compound 0.0316 µM
[4] = second compound 0.316 µM, first compound 0.1 µM
[5] = second compound 1 µM, first compound 0.0316 µM
[6] = second compound 1 µM, first compound 0.1 µM
[7] = second compound 3.16 µM, first compound 0.0316 µM
[8] = second compound 3.16 µM, first compound 0.1 µM
[9] = second compound 10 µM, first compound 0.0316 µM
[10] = second compound 10 µM, first compound 0.1 µM
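Further: spheroids exposed to agents for seven days.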
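Wherever viability, T/C is given: percent of DMSO vehicle control luminescence viability.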

CC1(C)CCC(CN2CCN(c3ccc(C(=O)NS(=O)(=O)c4ccc(NCC5CCOCC5)c([N+](=O)[O-])c4)c(Oc4cnc5[nH]ccc5c4)c3)CC2)=C(c2ccc(Cl)cc2)C1 + NC1CCC(NC2CC2c2ccccc2)CC1
IC50 (second compound 0.1 µM): 4200 nM | IC50 (second compound 0.316 µM): 3810 nM | IC50 (second compound 1 µM): 3770 nM | IC50 (second compound 3.16 µM): 3110 nM | IC50 (second compound 10 µM): 3790 nM | viability, T/C [1]: 109% | viability, T/C [2]: 116% | viability, T/C (second compound 0.1 µM, first compound 0.316 µM): 112% | viability, T/C (second compound 0.1 µM, first compound 1 µM): 109% | viability, T/C (second compound 0.1 µM, first compound 3.16 µM): 66.1% | viability, T/C (second compound 0.1 µM, first compound 10 µM): 0.51% | viability, T/C [3]: 119% | viability, T/C [4]: 113% | viability, T/C (second compound 0.316 µM, first compound 0.316 µM): 116% | viability, T/C (second compound 0.316 µM, first compound 1 µM): 111% | viability, T/C (second compound 0.316 µM, first compound 3.16 µM): 59.5% | viability, T/C (second compound 0.316 µM, first compound 10 µM): 0.64% | viability, T/C [5]: 108% | viability, T/C [6]: 105% | viability, T/C (second compound 1 µM, first compound 0.316 µM): 108% | viability, T/C (second compound 1 µM, first compound 1 µM): 103% | viability, T/C (second compound 1 µM, first compound 3.16 µM): 58.8% | viability, T/C (second compound 1 µM, first compound 10 µM): 0.9% | viability, T/C [7]: 116% | viability, T/C [8]: 124% | viability, T/C (second compound 3.16 µM, first compound 0.316 µM): 111% | viability, T/C (second compound 3.16 µM, first compound 1 µM): 109% | viability, T/C (second compound 3.16 µM, first compound 3.16 µM): 49% | viability, T/C (second compound 3.16 µM, first compound 10 µM): 0.91% | viability, T/C [9]: 119% | viability, T/C [10]: 117% | viability, T/C (second compound 10 µM, first compound 0.316 µM): 117% | viability, T/C (second compound 10 µM, first compound 1 µM): 115% | viability, T/C (second compound 10 µM, first compound 3.16 µM): 59.1% | viability, T/C (second compound 10 µM, first compound 10 µM): 0.85%

Cn1ncnc1C1c2n[nH]c(=O)c3cc(F)cc(c23)NC1c1ccc(F)cc1 (stereo not given) + NC1CCC(NC2CC2c2ccccc2)CC1
IC50 (second compound 0.1 µM): > 100 nM | IC50 (second compound 0.316 µM): > 100 nM | IC50 (second compound 1 µM): > 100 nM | IC50 (second compound 3.16 µM): > 100 nM | IC50 (second compound 10 µM): > 100 nM | viability, T/C (second compound 0.1 µM, first compound 0.000316 µM): 109% | viability, T/C (second compound 0.1 µM, first compound 0.001 µM): 99.9% | viability, T/C (second compound 0.1 µM, first compound 0.00316 µM): 98% | viability, T/C (second compound 0.1 µM, first compound 0.01 µM): 94.1% | viability, T/C [1]: 83% | viability, T/C [2]: 87.3% | viability, T/C (second compound 0.316 µM, first compound 0.000316 µM): 103% | viability, T/C (second compound 0.316 µM, first compound 0.001 µM): 92.4% | viability, T/C (second compound 0.316 µM, first compound 0.00316 µM): 89.8% | viability, T/C (second compound 0.316 µM, first compound 0.01 µM): 92.8% | viability, T/C [3]: 85.1% | viability, T/C [4]: 80.6% | viability, T/C (second compound 1 µM, first compound 0.000316 µM): 90.5% | viability, T/C (second compound 1 µM, first compound 0.001 µM): 95.5% | viability, T/C (second compound 1 µM, first compound 0.00316 µM): 90.1% | viability, T/C (second compound 1 µM, first compound 0.01 µM): 87.2% | viability, T/C [5]: 81.8% | viability, T/C [6]: 73.6% | viability, T/C (second compound 3.16 µM, first compound 0.000316 µM): 100% | viability, T/C (second compound 3.16 µM, first compound 0.001 µM): 96.5% | viability, T/C (second compound 3.16 µM, first compound 0.00316 µM): 95% | viability, T/C (second compound 3.16 µM, first compound 0.01 µM): 85.9% | viability, T/C [7]: 85.2% | viability, T/C [8]: 76.3% | viability, T/C (second compound 10 µM, first compound 0.000316 µM): 93.7% | viability, T/C (second compound 10 µM, first compound 0.001 µM): 97.2% | viability, T/C (second compound 10 µM, first compound 0.00316 µM): 92.8% | viability, T/C (second compound 10 µM, first compound 0.01 µM): 84.6% | viability, T/C [9]: 82% | viability, T/C [10]: 74.2%

NS(=O)(=O)OCC1CC(n2ccc3c(NC4CCc5ccccc54)ncnc32)CC1O (stereo not given) + NC1CCC(NC2CC2c2ccccc2)CC1
IC50 (second compound 0.1 µM): 28.1 nM | IC50 (second compound 0.316 µM): 31.8 nM | IC50 (second compound 1 µM): 26.3 nM | IC50 (second compound 3.16 µM): 25.8 nM | IC50 (second compound 10 µM): 25.4 nM | viability, T/C (second compound 0.1 µM, first compound 0.00949 µM): 77.7% | viability, T/C (second compound 0.1 µM, first compound 0.03 µM): 49% | viability, T/C (second compound 0.1 µM, first compound 0.0949 µM): 26.5% | viability, T/C (second compound 0.1 µM, first compound 0.3 µM): 16.8% | viability, T/C (second compound 0.1 µM, first compound 0.949 µM): 13.8% | viability, T/C (second compound 0.1 µM, first compound 3 µM): 7.17% | viability, T/C (second compound 0.316 µM, first compound 0.00949 µM): 69.6% | viability, T/C (second compound 0.316 µM, first compound 0.03 µM): 51.4% | viability, T/C (second compound 0.316 µM, first compound 0.0949 µM): 28.9% | viability, T/C (second compound 0.316 µM, first compound 0.3 µM): 15.1% | viability, T/C (second compound 0.316 µM, first compound 0.949 µM): 10.3% | viability, T/C (second compound 0.316 µM, first compound 3 µM): 6.4% | viability, T/C (second compound 1 µM, first compound 0.00949 µM): 71.8% | viability, T/C (second compound 1 µM, first compound 0.03 µM): 47.3% | viability, T/C (second compound 1 µM, first compound 0.0949 µM): 25.5% | viability, T/C (second compound 1 µM, first compound 0.3 µM): 13.7% | viability, T/C (second compound 1 µM, first compound 0.949 µM): 11.1% | viability, T/C (second compound 1 µM, first compound 3 µM): 7.37% | viability, T/C (second compound 3.16 µM, first compound 0.00949 µM): 70.7% | viability, T/C (second compound 3.16 µM, first compound 0.03 µM): 47.5% | viability, T/C (second compound 3.16 µM, first compound 0.0949 µM): 24.4% | viability, T/C (second compound 3.16 µM, first compound 0.3 µM): 15.6% | viability, T/C (second compound 3.16 µM, first compound 0.949 µM): 12.2% | viability, T/C (second compound 3.16 µM, first compound 3 µM): 7.55% | viability, T/C (second compound 10 µM, first compound 0.00949 µM): 74.9% | viability, T/C (second compound 10 µM, first compound 0.03 µM): 46.5% | viability, T/C (second compound 10 µM, first compound 0.0949 µM): 23.6% | viability, T/C (second compound 10 µM, first compound 0.3 µM): 15.3% | viability, T/C (second compound 10 µM, first compound 0.949 µM): 9.78% | viability, T/C (second compound 10 µM, first compound 3 µM): 5.36%
